This is an account of results in ChEMBL document CHEMBL3507680, “University of Dundee, Gates Library screen for HepG2 cell viability”.

A short description of this data set: Human HepG2 cell viability assay in 384 well format. It is filed as toxicity, cell-based. Further details: dose 125 nL, time 70.5 hour; concentration not given beside the values. To be noted: HepG2 cells, read-out: Inhibition.
For the compound `Cc1noc(C)c1C(C)NC(=O)N1CCC(NC(=O)c2ccsc2)CC1` (centres undefined), the cytotoxicity at 70.5 h was -6.79%.
With `Cc1cnn(CC2CN(Cc3noc(C4CC4)n3)CCO2)c1` (centres undefined), the cytotoxicity at 70.5 h is -13.6%.
With `Cc1nccn1-c1cc(CNC(=O)C2CCC(=O)N2)ccn1` (centres undefined), the cytotoxicity at 70.5 h is -6.29%.
For the compound `CS(=O)(=O)NCC1CCCN(C(=O)c2ccc3c(c2)CCCC3)C1` (centres undefined), the cytotoxicity at 70.5 h worked out at 5.26%.
For `Cc1ccc(C2COCCN2C(=O)c2ccc(C)s2)o1` (centres undefined), the cytotoxicity at 70.5 h is -9.04%.
In the case of `COc1ccccc1NC(=O)C1(c2ccccc2)CCOCC1`, the cytotoxicity at 70.5 h was -6.73%.
For the compound `CCCn1cc2c(C(F)F)cc(SCC(=O)O)nc2n1`, the cytotoxicity at 70.5 h is -8.88%.
As for `Cc1noc(CNc2cc3c(cc2Cl)OCCCO3)n1`, the cytotoxicity at 70.5 h was -14.8%.
`CCC(O)CN1CCN(C(=O)c2cccn2Cc2ccccc2)CC1` (centres undefined): the cytotoxicity at 70.5 h was -10.3%.
Turning to `O=C(N[C@H]1CN(C2CCOCC2)C[C@@H]1C1CC1)c1ccon1`, the cytotoxicity at 70.5 h is -4.68%.
Turning to `CC(=O)c1ccc(OCC(=O)NC(C)CCc2ccco2)cc1` (centres undefined), the cytotoxicity at 70.5 h is -18.1%.
Consider `COc1ccccc1C1CNC(=O)c2nc(-c3nccn3C)[nH]c2C1` (centres undefined), for which the cytotoxicity at 70.5 h turned out to be 5.33%.
In the case of `CCc1onc(C)c1C(=O)N1CCC(c2cc3ncccc3cn2)CC1`, the cytotoxicity at 70.5 h was 9.24%.
Consider `CCc1nnc(C(C)N2CCC(NC(=O)C3CCCCC3)CC2)o1` (centres undefined), for which the cytotoxicity at 70.5 h was -7.39%.
As to `CSc1ncccc1C(=O)NCc1ccc(N(C)C)cc1`, the cytotoxicity at 70.5 h turned out to be 40.2%.
As to `COc1ccc(OC)c(CN(C)c2ncc(S(N)(=O)=O)s2)c1`, the cytotoxicity at 70.5 h is -10.9%.
To `Cc1ccccc1C1(O)CCN(C(=O)CCc2cn3ccccc3n2)C1` (centres undefined) belongs 17.9%; to `CCS(=O)(=O)N1Cc2nccn2CC(Cn2cccn2)C1` (centres undefined), 1.18%.
In the case of `CNC(=O)[C@@H]1C[C@H]2CN(Cc3ccc(C)o3)C[C@H]2N1C(C)=O` it was -0.0424%; in that of `CC1(C)CNC(=O)c2nc(-c3nnn[nH]3)[nH]c2C1`, -3.01%; in that of `Cc1cc(C(=O)N[C@H]2Cc3ccccc3[C@@H]2N)c(=O)[nH]c1C`, 1.3%.
As for `O=C(O)[C@@H]1CN(C(=O)CSCC2CC2)C[C@H]1c1ccncc1`, the cytotoxicity at 70.5 h was determined as 1.26%.
On to `O=C(CN1CCCC1Cn1cccn1)NC1CCN(C2CC2)CC1` (centres undefined), for which the cytotoxicity at 70.5 h is -2.29%.
For the compound `COCC(=O)N1CCCCC1c1ccnc(Nc2ncc(C)s2)n1` (centres undefined), the cytotoxicity at 70.5 h was -0.578%.
To `O=C(NCC1CC1)[C@@H]1CCO[C@@H]2CCN(Cc3ccc(F)cc3)C[C@H]21` belongs -4.34%; to `Cc1ccccc1N1CCN(c2ccncn2)C(C)C1` (centres undefined), -2.86%; to `COc1cccc(-c2cnc(CNC(C)(C)c3nc(C)cs3)o2)c1`, -4.32%.
In the case of `CN(C)Cc1nc(C2(NC(=O)Nc3cccc(F)c3)CCCC2)no1` it was -2.26%; in that of `CC(=O)N1CCCN(C(=O)NCCCN(C)S(C)(=O)=O)CC1`, -8.8%; in that of `CO[C@@]1(C)C[C@@H](O)C12CCN(C(=O)C1(c3ccccc3F)CC1)CC2`, 9.4%.
As to `Cc1nocc1C(=O)N1CCc2c(CN(C)C)nn(C)c2C1`, the cytotoxicity at 70.5 h is -13.6%.
In the case of `CNC(=O)c1ccc2c(OC)n(C)nc2c1` it was -1.72%; in that of `CC(=O)N[C@@H]1CN(c2nc(C(N)=O)cs2)C[C@H]1c1ccc(C)o1`, -15.3%.
To `COc1cc(C)sc1C(=O)N1CCCC(n2nc(C)nc2C)C1` (centres undefined) belongs 21.7%; to `CCN1CC2(CC1=O)CN(C(=O)NC)CCN(S(C)(=O)=O)C2` (centres undefined), -6.12%.
As to `Cn1c2c(c(=O)c3ccccc31)CCC(C)(C)O2`, the cytotoxicity at 70.5 h was -9.34%.
`O=S(=O)(NCC1(O)CCOc2ccccc21)c1cccs1` (centres undefined): the cytotoxicity at 70.5 h was 3.15%.
For `CCNC(=O)[C@@H]1C[C@H](N)CN1Cc1ccc(-c2ccccc2C#N)o1`, the cytotoxicity at 70.5 h is 9.56%.
Turning to `CN(C)C(=O)C1CN(Cc2ccsc2)Cc2ccnn2C1` (centres undefined), the cytotoxicity at 70.5 h stood at 12.7%.
Take `Cc1nnc(N2C[C@H](OCc3ccncc3)[C@H]3OCCC[C@H]32)s1`: the cytotoxicity at 70.5 h is -4.47%.
In the case of `Cc1cccc(OCCNC(=O)C(C)S(=O)(=O)c2ccccn2)c1` (centres undefined), the cytotoxicity at 70.5 h was -2.85%.
`Cc1nc2n(n1)CC(NCc1ccc(Cl)c3cccnc13)CC2` (centres undefined): the cytotoxicity at 70.5 h was -8.23%.
Regarding `CC(C)(O)c1cc(CC2(NCc3ccccc3Cl)COC2)no1`, the cytotoxicity at 70.5 h was -0.604%.
Turning to `Cc1ccc2c(c1)C(NC(=O)N(C)C)CC21CCN(C(C)C)CC1` (centres undefined), the cytotoxicity at 70.5 h is -5.2%.
As to `COCC(=O)N1CCN(C)C(=O)C(Cc2ccc(-c3cccs3)cc2)C1` (centres undefined), the cytotoxicity at 70.5 h was -1.25%.
As for `CCCC1CN(CCOc2ccccc2)C(=O)c2cccnc2O1` (centres undefined), the cytotoxicity at 70.5 h came out at 4.28%.
In the case of `Cc1ccsc1C(=O)N1CCC(c2nccn2Cc2ccncc2)CC1`, the cytotoxicity at 70.5 h was -9.49%.
On to `Cc1noc(C)c1CCC(=O)N[C@@H]1CC[C@@H](Oc2cccnc2)[C@@H]1O`, for which the cytotoxicity at 70.5 h is -3.66%.
Regarding `CC(C)N(C)C(=O)C1=NOC2(CCN(C(=O)c3ccnnc3)C2)C1` (centres undefined), the cytotoxicity at 70.5 h was -1.5%.
Turning to `O=C(NCC(F)(F)F)C1CCCN(Cc2ccno2)C1` (centres undefined), the cytotoxicity at 70.5 h was -3.85%.
As to `Cc1cnc(NC(=O)C(C)n2ccc(C(F)(F)F)n2)s1` (centres undefined), the cytotoxicity at 70.5 h was -5.09%.
In the case of `CC(C)=CCN1CCOC(Cn2cccn2)C1` (centres undefined) it was 1.11%.
In the case of `CNC(=O)CN1CCCC12CCN(C(=O)c1ccc(F)cc1)CC2` it was -11%.
To `Cc1ccc(C2CSCCN2C(=O)c2ccoc2C)o1` (centres undefined) belongs -8.94%; to `CC(C(=O)NC1CC1)N1CCN(Cc2ccn(C)c(=O)c2)CC1` (centres undefined), 0.0611%; to `Cc1cc(C(=O)N2C[C@H](CO)C[C@H](CN3CCOCC3)C2)cnc1C`, 14.5%.
In the case of `CC(C)Oc1cccc(CNC(=O)NC(C)(C(=O)O)c2ccco2)c1` (centres undefined), the cytotoxicity at 70.5 h is -0.448%.
Consider `CC(C)OC(=O)N1CCCC(c2nccn2Cc2ccncc2)C1` (centres undefined), for which the cytotoxicity at 70.5 h is -8%.
In the case of `CC(C)C[C@H](NCc1cc(O)c2cccc(F)c2n1)C(N)=O` it was -11.8%; in that of `O=C(NCCN1CCCC1)Nc1cc(C(=O)N2CCOCC2)ccc1Cl`, -8.22%; in that of `Cc1nc(CO[C@@H]2CN(Cc3ccco3)[C@@H]3COC[C@@H]32)cs1`, -14.3%.
In the case of `COc1ccc(CN2CCC3(CCCN(C)C3=O)C2)c(Cl)c1OC` (centres undefined), the cytotoxicity at 70.5 h was 0.156%.
`Cc1ccc(C(NC(=O)CN2CCc3cncnc3C2)C2CC2)cc1` (centres undefined): the cytotoxicity at 70.5 h is -13.1%.
For `CC1=N[C@@]2(CC[C@@H]3CN(S(C)(=O)=O)C[C@@H]32)C(=O)N1CC(C)C`, the cytotoxicity at 70.5 h was -15.6%.
Regarding `COCCC1COC2(CCN(C(=O)C3CCC3)CC2)C1` (centres undefined), the cytotoxicity at 70.5 h is -3.7%.
For the compound `Cc1nnc(CN2CCC(N(C)Cc3nnc(C4CC4)n3C)C2)o1` (centres undefined), the cytotoxicity at 70.5 h is -21.8%.
With `CC(C)c1n[nH]c(C2CN(Cc3ncc[nH]3)CCO2)n1` (centres undefined), the cytotoxicity at 70.5 h worked out at 35.2%.
As for `CCOC(=O)CCNC(=O)c1cc(Cl)cc2cccnc12`, the cytotoxicity at 70.5 h is -4.4%.
Consider `O=C(Cc1ccccn1)N1CCn2cc(Cn3cncn3)nc2C1`, for which the cytotoxicity at 70.5 h is 0.952%.
For `COCCN(CCOC)Cc1nc2c(cnn2C)c(=O)[nH]1`, the cytotoxicity at 70.5 h was found to be 7%.
On to `CNC(=O)c1cc2c(nc1N(C)C)CCN(C)CC2`, for which the cytotoxicity at 70.5 h is -2.14%.
Take `Cc1nc(N(C)C)nc(N(C)CCc2ccncc2)c1C`: the cytotoxicity at 70.5 h is -15.2%.
As to `O=C(N[C@@H]1CCN(C(=O)c2ccc(F)cc2Cl)C[C@H]1O)c1ccccn1`, the cytotoxicity at 70.5 h was -6.49%.
Take `Cc1nn(CCN2CCSCC2)cc1CNCC1CC1`: the cytotoxicity at 70.5 h was -14.6%.
For the compound `c1cnc(N2CCOC3(CCCN(c4cnccn4)C3)C2)nc1` (centres undefined), the cytotoxicity at 70.5 h is -8.79%.
For the compound `Cc1ccc(CNC(=O)CN2CCCC(Cn3cncn3)C2)s1` (centres undefined), the cytotoxicity at 70.5 h is 22.1%.
Consider `CCn1nccc1CNC(=O)C(C)n1cc2c(n1)c(C)nn2C` (centres undefined), for which the cytotoxicity at 70.5 h turned out to be 3.69%.
With `COc1ncccc1C(=O)N1CCCC(n2ccnc2)C1` (centres undefined), the cytotoxicity at 70.5 h is -1.13%.
For `c1cnc(Nc2cc(CCC3CCNCC3)ccn2)cn1`, the cytotoxicity at 70.5 h was 5.45%.
As to `CN1CCN(C(=O)Cc2ccc(S(=O)(=O)C(F)F)cc2)CC1`, the cytotoxicity at 70.5 h was -8.11%.
In the case of `Cc1[nH]ccc1C(=O)N1CCCC(c2ccc(C(=O)O)cc2)C1` (centres undefined), the cytotoxicity at 70.5 h is -22.6%.
As for `NCCc1cc(N2CCOCC2)nc(NC2CC2)n1`, the cytotoxicity at 70.5 h was -8.21%.
For `CCC[C@@H]1CN(C(=O)c2cc3ccccc3s2)C[C@H]1NS(C)(=O)=O`, the cytotoxicity at 70.5 h is -2.51%.
Regarding `COc1cc(CCC(=O)NC2CC2)ccc1OCC(F)(F)F`, the cytotoxicity at 70.5 h was -15.3%.
In the case of `COc1ccc(C(=O)CCc2nc(C3CC3)no2)cc1F`, the cytotoxicity at 70.5 h is -13.6%.
In the case of `O=C(c1cccnc1)N1CCO[C@@H]2CNC[C@@H]21` it was -4.67%.
Regarding `COC1(CNC(=O)c2ccc(Cl)c(Cl)c2)CCSC1` (centres undefined), the cytotoxicity at 70.5 h was -15%.
As for `CN(C)CCN1CCC2(CCCN(Cc3cccn3C)C2)C1=O` (centres undefined), the cytotoxicity at 70.5 h was -11.1%.
For `COc1ccc(CNc2nncs2)cc1F`, the cytotoxicity at 70.5 h is -2.65%.
For `Cc1cc(C)n(CCN2CCOC(CNc3cccnn3)C2)n1` (centres undefined), the cytotoxicity at 70.5 h is -4.33%.
With `CC(=O)N1N=C(c2ccccc2)OC1C(=O)NCCC1=CCCCC1` (centres undefined), the cytotoxicity at 70.5 h is -0.565%.
In the case of `CN(C)CCOCC1CN(C(=O)c2cscn2)Cc2ccnn2C1` (centres undefined) it was -8.28%.
`COC(=O)NC1(C(=O)Nc2ccc(-c3ncc[nH]3)cc2)CCCC1`: the cytotoxicity at 70.5 h amounted to 1.15%.
In the case of `CC(Cn1cccn1)NC(=O)NCCN1CCCCCC1=O` (centres undefined) it was 2.55%.
Regarding `CCOCCC(=O)N(C)Cc1noc(C(C)C)n1`, the cytotoxicity at 70.5 h is 24.4%.
To `CC(C)N(Cc1ccc(C#N)cc1)Cc1nnsc1Cl` belongs -15.5%; to `Cc1ccc(OCCN(C)Cc2cscn2)cc1`, -2.46%; to `Cc1cccc(C(=O)N2CCCSCC2CN2CCCC2)c1` (centres undefined), -0.415%.
Turning to `COc1ccc(S(=O)(=O)NCCC(=O)NCc2ccoc2)cc1OC`, the cytotoxicity at 70.5 h is -11.3%.
